Data taken from ChEMBL document CHEMBL1201862, “PubChem BioAssay data set” (2004).
Calls of active or inactive are those of the source. Cut-off read from the data, not from the text of the source: actives have a measured IC50 and inactives only a lower limit.

Experiments:
Type in all cases: functional
[1] = target: T1, Sentrin-specific protease 8 (Homo sapiens, UniProt Q96LD8); assay: SENP8 protease inhibitors, SAR follow-up, biochemical, luminescence (AID 504501)
T1 sequence (Q96LD8 whole entry): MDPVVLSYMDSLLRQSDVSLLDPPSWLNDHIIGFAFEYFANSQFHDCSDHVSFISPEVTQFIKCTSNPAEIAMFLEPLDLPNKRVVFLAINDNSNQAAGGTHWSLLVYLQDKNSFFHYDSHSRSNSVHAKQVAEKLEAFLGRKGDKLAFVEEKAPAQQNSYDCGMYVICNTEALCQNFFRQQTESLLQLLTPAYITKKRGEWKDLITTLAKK

[2] = target: T2, Sentrin-specific protease 7 (Homo sapiens, UniProt Q9BQF6); assay: SENP7 protease inhibitors, SAR follow-up, biochemical, luminescence, set 2 (AID 588600)
T2 sequence (Q9BQF6 whole entry): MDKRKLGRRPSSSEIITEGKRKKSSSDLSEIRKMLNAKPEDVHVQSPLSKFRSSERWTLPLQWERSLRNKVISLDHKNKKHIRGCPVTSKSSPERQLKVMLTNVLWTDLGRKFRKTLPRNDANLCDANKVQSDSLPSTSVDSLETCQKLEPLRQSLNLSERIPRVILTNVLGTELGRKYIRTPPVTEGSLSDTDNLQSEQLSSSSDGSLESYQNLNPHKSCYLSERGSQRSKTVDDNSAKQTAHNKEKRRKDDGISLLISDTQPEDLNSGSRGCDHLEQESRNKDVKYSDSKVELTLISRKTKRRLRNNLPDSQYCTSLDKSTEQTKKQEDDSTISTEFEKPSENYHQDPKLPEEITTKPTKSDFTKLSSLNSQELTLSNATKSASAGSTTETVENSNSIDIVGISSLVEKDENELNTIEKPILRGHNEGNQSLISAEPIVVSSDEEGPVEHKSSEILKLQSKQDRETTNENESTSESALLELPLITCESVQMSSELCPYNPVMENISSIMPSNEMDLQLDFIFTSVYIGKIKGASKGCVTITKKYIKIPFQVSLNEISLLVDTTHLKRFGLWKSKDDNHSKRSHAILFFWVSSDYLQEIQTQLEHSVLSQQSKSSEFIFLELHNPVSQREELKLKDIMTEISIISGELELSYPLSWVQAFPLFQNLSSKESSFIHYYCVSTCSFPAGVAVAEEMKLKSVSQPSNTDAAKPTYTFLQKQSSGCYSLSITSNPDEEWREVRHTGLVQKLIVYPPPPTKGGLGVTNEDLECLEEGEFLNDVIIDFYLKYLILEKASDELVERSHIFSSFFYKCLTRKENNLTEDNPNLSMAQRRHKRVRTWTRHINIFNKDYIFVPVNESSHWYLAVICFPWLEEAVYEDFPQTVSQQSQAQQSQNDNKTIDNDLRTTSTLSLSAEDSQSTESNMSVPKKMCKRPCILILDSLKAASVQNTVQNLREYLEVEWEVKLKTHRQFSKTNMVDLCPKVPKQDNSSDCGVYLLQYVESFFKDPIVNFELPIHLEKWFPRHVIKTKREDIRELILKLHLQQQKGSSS

[3] = target: T3, Sentrin-specific protease 6 (Homo sapiens, UniProt Q9GZR1); assay: SENP6 protease inhibitors, SAR follow-up, biochemical, luminescence, set 2 (AID 588598)
T3 sequence (Q9GZR1 whole entry): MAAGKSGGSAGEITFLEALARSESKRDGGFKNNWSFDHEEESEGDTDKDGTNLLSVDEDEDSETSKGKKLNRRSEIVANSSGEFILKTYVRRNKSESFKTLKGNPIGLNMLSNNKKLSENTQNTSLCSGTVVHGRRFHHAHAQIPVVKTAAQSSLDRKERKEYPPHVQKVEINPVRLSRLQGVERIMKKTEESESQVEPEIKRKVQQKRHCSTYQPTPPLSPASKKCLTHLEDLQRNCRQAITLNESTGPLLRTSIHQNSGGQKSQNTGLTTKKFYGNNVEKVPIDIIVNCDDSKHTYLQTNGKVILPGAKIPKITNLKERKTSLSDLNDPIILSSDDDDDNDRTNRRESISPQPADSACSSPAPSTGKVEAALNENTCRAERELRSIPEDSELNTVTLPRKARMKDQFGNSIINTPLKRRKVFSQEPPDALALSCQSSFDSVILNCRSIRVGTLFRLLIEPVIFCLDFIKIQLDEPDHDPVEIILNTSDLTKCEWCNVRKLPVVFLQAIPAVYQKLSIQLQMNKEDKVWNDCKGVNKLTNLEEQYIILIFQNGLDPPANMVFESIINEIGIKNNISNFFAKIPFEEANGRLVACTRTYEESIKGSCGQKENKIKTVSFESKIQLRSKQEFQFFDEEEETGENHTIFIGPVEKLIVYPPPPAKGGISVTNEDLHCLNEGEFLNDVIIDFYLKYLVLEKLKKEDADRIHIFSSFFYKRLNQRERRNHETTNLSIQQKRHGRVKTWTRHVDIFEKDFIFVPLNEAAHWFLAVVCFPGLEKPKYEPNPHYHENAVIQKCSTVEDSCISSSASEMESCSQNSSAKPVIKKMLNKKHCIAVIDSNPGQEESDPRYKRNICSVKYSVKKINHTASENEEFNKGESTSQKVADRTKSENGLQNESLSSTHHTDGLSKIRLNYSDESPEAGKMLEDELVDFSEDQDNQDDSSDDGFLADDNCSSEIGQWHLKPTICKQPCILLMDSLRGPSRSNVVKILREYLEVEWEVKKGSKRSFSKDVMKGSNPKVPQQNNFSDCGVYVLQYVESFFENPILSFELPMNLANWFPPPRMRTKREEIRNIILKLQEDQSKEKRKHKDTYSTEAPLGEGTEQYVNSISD

[4] = target: T1, Sentrin-specific protease 8; assay: SENP8 protease inhibitors, SAR follow-up, biochemical, luminescence, set 2 (AID 588601)
[5] = target: T3, Sentrin-specific protease 6; assay: SAR Analysis of small molecule inhibitors of Sentrin-specific protease 6 (SENP6) using a Luminescent assay. [Related pubchem assays (depositor defined):AID2582, AID2599]
[6] = target: T2, Sentrin-specific protease 7; assay: SENP7 protease inhibitors, SAR follow-up, biochemical, luminescence (AID 504497)
Caspase-3 [7] = target: T4, Caspase-3 (Homo sapiens, UniProt P42574); assay: SAR Analysis of small molecule inhibitors of Sentrin-specific proteases (SENPs) using a Caspase-3 Selectivity assay. [Related pubchem assays (depositor defined):AID2540, AID2599, AID434973, AID489001]
T4 sequence (P42574 whole entry): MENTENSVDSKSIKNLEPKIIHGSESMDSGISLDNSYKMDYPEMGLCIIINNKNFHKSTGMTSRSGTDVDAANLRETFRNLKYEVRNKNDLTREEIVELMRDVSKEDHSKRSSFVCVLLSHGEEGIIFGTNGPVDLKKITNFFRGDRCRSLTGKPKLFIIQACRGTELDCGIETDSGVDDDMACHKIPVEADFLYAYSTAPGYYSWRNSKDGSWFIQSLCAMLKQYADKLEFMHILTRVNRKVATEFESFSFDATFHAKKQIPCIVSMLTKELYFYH

Caspase-3 [8] = target: T4, Caspase-3; assay: caspase-3 inhibitors as off-family protease, SAR follow-up, selectivity assay for SENP protease inhibitor project, biochemical, luminescence, set 2 (AID 588599)

IC50 [2]: 1230 nM (active)
IC50 [3]: 1160 nM (active)
IC50 [5]: 1400 nM (active)
IC50 [6]: 1000 nM (active)
IC50 (Caspase-3 [7]): 1500 nM (active)
IC50 (Caspase-3 [8]): 1420 nM (active)
Structure (SMILES): O=C(Nc1nc2ccc(Cl)cc2s1)c1ccco1
IC50 [1]: 1700 nM (active)
IC50 [4]: 1080 nM (active)
